Key:
[1] = biological target: T1, ckGL (purified native galactolipase) (Parachlorella kessleri, UniProt A0A2Z5TTR4); test: free fatty acid release (NEFA C kit, A550), Lineweaver-Burk linear regression; type: biochemical; details: pH 6.5 MES-NaOH, 37 °C, 2 mM CaCl2, 0.3% (w/v) Triton X-100; substrate is an acyl-chain mixture; read-out: apparent Km
T1 construct: gene chGL; native, purified from C. kessleri cells; N-terminus TALREVATKSEVSEA; ~53 kDa; in Triton X-100
T1 sequence (A0A2Z5TTR4 61-535): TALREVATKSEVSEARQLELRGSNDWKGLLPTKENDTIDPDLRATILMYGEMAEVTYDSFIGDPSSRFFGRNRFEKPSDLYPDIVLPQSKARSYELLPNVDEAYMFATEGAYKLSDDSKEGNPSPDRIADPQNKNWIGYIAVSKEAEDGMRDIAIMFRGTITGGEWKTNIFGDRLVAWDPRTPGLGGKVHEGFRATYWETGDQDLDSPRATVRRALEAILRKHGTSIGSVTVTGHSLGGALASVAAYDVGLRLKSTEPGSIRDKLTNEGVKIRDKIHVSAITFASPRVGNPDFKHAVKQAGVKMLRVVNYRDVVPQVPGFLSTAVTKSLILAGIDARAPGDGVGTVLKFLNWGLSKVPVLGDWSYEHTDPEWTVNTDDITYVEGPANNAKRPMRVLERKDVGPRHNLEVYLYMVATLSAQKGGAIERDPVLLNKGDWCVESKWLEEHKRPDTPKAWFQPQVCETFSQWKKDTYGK

rckGL (recombinant ckGL) = biological target: T2, rckGL (recombinant ckGL) (Parachlorella kessleri, UniProt A0A2Z5TTR4); test: free fatty acid release (NEFA C kit, A550), nonlinear regression; type: biochemical; details: pH 6.5 MES-NaOH, 37 °C, 2 mM CaCl2, 0.3% (w/v) Triton X-100; substrate is an acyl-chain mixture; read-out: apparent Km
T2 construct: gene chGL; His-tag and trigger factor cut off with factor Xa; ~53 kDa
T2 sequence (A0A2Z5TTR4 61-535): T1 sequence (A0A2Z5TTR4 61-535)

1,2-diacyl-3-O-(α-D-galactosyl1-6)-β-D-galactosyl-sn-glycerol [DGDG]
Km [1]: 1050 ± 480 µM
Km (rckGL (recombinant ckGL)): 540 ± 110 µM
